Measurements published in PubChem BioAssay AID651677 (The Scripps Research Institute Molecular Screening Center, 2012).
Active and inactive are the calls of the source. No rule for the calls is given here.

target: Perilipin-5 (Homo sapiens) + 1-acylglycerol-3-phosphate O-acyltransferase ABHD5 (Homo sapiens) (UniProt Q00G26+Q8WTS1); assay: blockers of ABHD5 binding to perilipin-5 – biochemical, luminescence, dose response (AID 651677); settings: ABHD5-PLIN5 interaction
Sequence (Q00G26 whole entry, looked up): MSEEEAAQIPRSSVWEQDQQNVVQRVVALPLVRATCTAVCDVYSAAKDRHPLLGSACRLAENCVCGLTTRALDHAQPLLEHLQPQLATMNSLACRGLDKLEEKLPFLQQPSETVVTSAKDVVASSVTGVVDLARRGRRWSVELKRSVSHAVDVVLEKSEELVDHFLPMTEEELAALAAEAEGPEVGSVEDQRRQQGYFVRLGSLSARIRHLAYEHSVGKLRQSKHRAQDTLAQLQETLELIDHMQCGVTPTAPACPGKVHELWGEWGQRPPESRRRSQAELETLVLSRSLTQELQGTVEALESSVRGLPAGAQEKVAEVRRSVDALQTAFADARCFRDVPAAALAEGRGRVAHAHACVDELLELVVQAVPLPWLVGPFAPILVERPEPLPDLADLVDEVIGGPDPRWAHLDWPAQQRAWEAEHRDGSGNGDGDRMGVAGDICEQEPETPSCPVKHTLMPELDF
Sequence (Q8WTS1 whole entry, looked up): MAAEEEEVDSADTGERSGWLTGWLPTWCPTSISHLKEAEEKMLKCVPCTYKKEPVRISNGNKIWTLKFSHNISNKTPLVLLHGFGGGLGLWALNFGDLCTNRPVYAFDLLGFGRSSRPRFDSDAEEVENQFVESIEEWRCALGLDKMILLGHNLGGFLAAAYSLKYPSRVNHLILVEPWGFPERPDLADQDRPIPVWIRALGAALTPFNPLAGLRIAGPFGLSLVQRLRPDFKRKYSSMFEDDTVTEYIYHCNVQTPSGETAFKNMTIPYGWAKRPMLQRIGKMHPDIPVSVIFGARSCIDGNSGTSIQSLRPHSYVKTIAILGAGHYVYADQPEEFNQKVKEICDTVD

Row | SMILES | IC50
1 | COc1ccc(NC(=O)C(c2ccc(C#N)cc2)n2c(=O)c(-c3ccco3)nc3ccccc32)cc1 (stereo not drawn) | 8.62 µM
2 | O=C(NCc1ccccc1)C(c1ccccc1)n1c(=O)c(-c2ccco2)nc2ccccc21 (stereo not drawn) | 2.8 µM
3 | O=C(Cn1c(=O)n(Cc2ccco2)c(=O)c2c3c(sc21)CCCC3)Nc1ccccc1 | inactive
4 | CC(C)c1ccc(N2C=Nc3ccc(C(C)C)cc3C2)cc1 | inactive
5 | CCN(CC)CCNC(=O)c1ccc(NC(=O)c2cn(-c3ccccc3)nc2-c2cccs2)cc1 | inactive
6 | N#Cc1ccc(C(C(=O)NC2CCCCC2)n2c(=O)c(-c3ccco3)nc3ccccc32)cc1 (stereo not drawn) | 1.88 µM
7 | O=c1nc(/C=C/c2ccc(Cl)cc2Cl)cc(C(F)(F)F)[nH]1 | 3.48 µM
8 | O=C(/C=C/c1ccc2c(c1)OCCCO2)c1ccccc1O | 5.65 µM
9 | CC(=O)C1=C(c2cccc([N+](=O)[O-])c2)N(C(C)=O)n2c(C)nnc2S1 | 2.86 µM
10 | O=C(C[n+]1cccc(CNC(=O)c2ccc(OC(F)F)cc2)c1)Nc1cccc(C(F)(F)F)c1 | inactive
11 | O=C(NCc1ccccc1)C(C1CC1)n1c(=O)c(-c2ccco2)nc2ccccc21 (stereo not drawn) | 7.2 µM
12 | C#CCN(C[C@@H]1[C@@H](OC(=O)NC2CCCC2)[C@@H](OC(=O)NC2CCCC2)Cn2c(=O)ccc(=O)n21)S(=O)(=O)c1ccc(C)cc1 | 3.69 µM
13 | CN(C)CCOC1(Cc2ccc(F)cc2)CCC(C(C)(C)C)CC1 (stereo not drawn) | 7.33 µM
14 | COCCNC(=O)/C(C#N)=C/c1cccc(/C=C(\C#N)C(=O)NCCOC)c1 | 0.727 µM
15 | CCN(CC)CCN(CC(=O)Nc1c(C)cc(C)cc1C)C(=O)c1ccccc1 | 9.74 µM
16 | Cc1ccc(SC2=C(Sc3ccc(C)cc3)C(=O)c3ccccc3C2=O)cc1 | 1 µM
17 | COc1ccccc1/C=C/C(=O)c1ccccc1 | 6.63 µM
18 | COc1ccc(NC(=O)C(c2cccc3ccccc23)n2c(=O)c(-c3ccco3)nc3ccccc32)cc1 (stereo not drawn) | inactive
